pIC50, pKd: −log10 of the molar value.
What was measured:
[1] = target: T1, SOS1 catalytic domain (residues 564-1049) (Homo sapiens, UniProt Q07889); assay: Potency Assay: binding affinity to SOS1 using Surface Plasmon Resonance (SPR); set-up: SOS1 catalytic domain (residues 564-1049) immobilized on a sensor chip; conditions: immobilized SOS1 catalytic domain (residues 564-1049), read-out: SOS1 SPR Equilibrium Kd
T1 sequence (Q07889 564-1049): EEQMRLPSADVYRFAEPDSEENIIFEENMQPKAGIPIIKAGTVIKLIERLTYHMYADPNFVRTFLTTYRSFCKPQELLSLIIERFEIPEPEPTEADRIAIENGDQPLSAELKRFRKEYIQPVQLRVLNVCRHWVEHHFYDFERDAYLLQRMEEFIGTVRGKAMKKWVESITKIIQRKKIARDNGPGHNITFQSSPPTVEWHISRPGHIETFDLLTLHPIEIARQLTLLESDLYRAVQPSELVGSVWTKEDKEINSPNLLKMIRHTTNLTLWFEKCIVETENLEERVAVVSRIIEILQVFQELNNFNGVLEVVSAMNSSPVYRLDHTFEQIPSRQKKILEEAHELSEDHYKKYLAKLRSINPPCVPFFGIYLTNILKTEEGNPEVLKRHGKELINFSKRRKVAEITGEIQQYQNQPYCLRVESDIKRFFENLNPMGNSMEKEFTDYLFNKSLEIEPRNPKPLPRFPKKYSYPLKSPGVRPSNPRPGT
Protocol: Data was reported as equilibrium dissociation constant (Kd) values.
Using a GE Biacore 8K SPR instrument, avi-tagged SOS1 catalytic domain protein was immobilized to a level of approximately 6000 response units (RU) on a streptavidin-coated SPR sensor chip in assay buffer containing 0.01 M HEPES, 0.15 M NaCl and 0.05% v/v Surfactant P20. […] For each test compound, a separate 0 μM sample was generated for use during subsequent double reference subtraction. Serially for each test compound, individual dilution samples were flowed over the immobilized SOS1 protein at a flow rate of 50 μL/minute to monitor the association with SOS1. Dissociation of bound test compound from the SOS1 protein was immediately monitored by flowing assay buffer over the sensor surface and monitoring the decrease in binding signal back to the baseline level seen in the absence of compound. This was repeated for all compound dilutions in each series. The binding level response for each test compound concentration was noted immediately prior to the end of the association phase, and a secondary plot generated showing binding response level versus test compound concentration generated for each compound dilution series.

[2] = target: T1, SOS1 catalytic domain (residues 564-1049); assay: Mode of Action Assay: inhibition of SOS1 nucleotide exchange activity (SOS1 TR-FRET IC50 Assay)
Protocol: The purpose of this assay was to characterize the inhibitory activity of compounds on SOS1 nucleotide exchange of KRAS. Data was reported as IC50 values based on the TR-FRET signal.
Note—the following protocol describes a procedure for monitoring the inhibition of SOS1 nucleotide exchange activity of wild-type KRAS in response to a compound of the invention.
The SOS1/compound mixture was incubated at room temperature with constant mixing on an orbital shaker for 20 minutes to allow the reaction to reach equilibrium. […] This mixture was prepared immediately before addition to the SOS1/compound mixture to prevent intrinsic nucleotide exchange. Then 5 μL of the pre-incubated SOS1/compound mixture and 7.5 μL of the KRAS mixture were added sequentially in a 384-well low volume black round bottom plate and incubated at room temperature with constant shaking for 30 minutes. Time-resolved fluorescence was measured on a PerkinElmer Envision plate reader.
Three replicates were performed for each compound. Data were normalized by the following: (Positive control−Sample signal)/(Positive control−negative control)*100. The data were fit using a four-parameter logistic fit.

| SMILES | pKd [1] | pIC50 [2] |
| --- | --- | --- |
| C[C@@H](Nc1nc(OC2COC2)nc2c1CN(C(=O)N1CCOCC1)C2)c1cc(N)cc(C(F)(F)F)c1 [Example 133, N-[(1R)-1-[3-amino-5-(trifluoro-methyl)phenyl]ethyl]-6-(morpholine-4-carbonyl)-2-(oxetan-3-yl-oxy)-5H,6H,7H-pyrrolo[3,4-d]pyrimidin-4-amine] | < 6.40 | < 6.00 |
| Cc1nc2c(c(N[C@H](C)c3cc(N)cc(C(F)(F)F)c3)n1)CN(C)C2 [Example 43] | < 6.40 | < 6.00 |
| COC1CN([C@@H]2CCc3nc(Cl)nc(N[C@H](C)c4cc(N)cc(C(F)(F)F)c4)c3C2)C1 [Example 431] | > 6.40 | > 6.00 |
| C[C@@H](Nc1nc(Cl)nc2c1CN(C(=O)c1ccc(-n3ccnc3)cn1)C2)c1cc(N)cc(C(F)(F)F)c1 [Example 76] | < 6.40 | < 6.00 |
| CCOCCS(=O)(=O)N1Cc2nc(Cl)nc(N[C@H](C)c3cc(N)cc(C(F)(F)F)c3)c2C1 [Example 50] | < 6.40 | < 6.00 |
| C[C@@H](Nc1nc(Cl)nc2c1CN(C(=O)c1cnn(C3CCOCC3)c1)C2)c1cc(N)cc(C(F)(F)F)c1 [Example 96] | > 6.40 | < 6.00 |
| O=C(N1CCOCC1)N1Cc2nc(Cl)nc(N[C@H](CO)c3cccc(C(F)(F)F)c3)c2C1 [Example 174] | < 6.40 | < 6.00 |
| C[C@@H](Nc1nc(Cl)nc2c1CN(C(=O)N1CCCC13CCOCC3)C2)c1cc(N)cc(C(F)(F)F)c1 [Example 139] | > 6.40 | > 6.00 |
| CC(Nc1nc(Cl)nc2c1CN(C(=O)N1CCOCC1)C2)c1cc(N)cc(C(F)(F)F)c1F (stereo not shown) [Example 461, (4-((1-(5-amino-2-fluoro-3-(trifluoromethyl)phenyl)ethyl)amino)-2-chloro-5,7-dihydro-6H-pyrrolo[3,4-d]pyrimidin-6-yl)(morpholino)methanone] | > 6.40 | > 6.00 |
| CC(=O)N1CC(F)(C(=O)N2Cc3nc(Cl)nc(N[C@H](C)c4cccc(C(F)F)c4F)c3C2)C1 [Example 347] | > 6.40 | > 6.00 |
| C[C@@H](Nc1nc(Cl)nc2c1CN(C(=O)C1CC3CCC(C1)O3)C2)c1cc(N)cc(C(F)(F)F)c1 (stereo partly shown) [Example 81] | > 6.40 | > 6.00 |
| C[C@@H](Nc1nc(Cl)nc2c1CN(S(=O)(=O)N1CCN(C)CC1)C2)c1cc(N)cc(C(F)(F)F)c1 [Example 25] | > 6.40 | > 6.00 |
| C[C@@H](Nc1nc(Cl)nc2c1CN(C(=O)CN1CCOCC1)C2)c1cc(N)cc(C(F)(F)F)c1 [Example 89] | > 6.40 | > 6.00 |
| Cc1nc2c(c(N[C@H](C)c3cc(N)cc(C(F)(F)F)c3)n1)CN(c1ccc(Br)cn1)CC2 [Example 42, N-[(1R)-1-[3-amino-5-(trifluoromethyl)phenyl]ethyl]-6-(5-bromo-2-pyridyl)-2-methyl-7,8-dihydro-5H-pyrido[4,3-d]pyrimidin-4-amine] | < 6.40 | < 6.00 |
| COc1cc(OC)nc(C(=O)N2Cc3nc(Cl)nc(N[C@H](C)c4cc(N)cc(C(F)(F)F)c4)c3C2)n1 [Example 63] | > 6.40 | < 6.00 |
| C[C@@H]1CN(C(=O)N2Cc3nc(Cl)nc(N[C@H](C)c4cc(N)cc(C(F)(F)F)c4)c3C2)C[C@@H](C)N1 [Example 143] | > 6.40 | > 6.00 |
| C[C@@H](Nc1nc(Cl)nc2c1CN(C(=O)C1CCOCC1)C2)c1cc(N)cc(C(F)(F)F)c1 [Example 116, N-[(1R)-1-[3-amino-5-(trifluoromethyl)phenyl]ethyl]-2-chloro-6-(oxane-4-carbonyl)-5H,6H,7H-pyrrolo[3,4-d]pyrimidin-4-amine] | > 6.40 | > 6.00 |
| C[C@@H](Nc1nc(Cl)nc2c1CN(C(=O)c1nccnn1)C2)c1cc(N)cc(C(F)(F)F)c1 [Example 64] | < 6.40 | < 6.00 |
| COC1(C(=O)N2Cc3nc(C(F)(F)CN)nc(N[C@H](C)c4cccc(C(F)F)c4F)c3C2)CCOCC1 [Example 488, 2-(2-amino-1,1-difluoroethyl)-N-[(1R)-1-[3-(difluoromethyl)-2-fluorophenyl]ethyl]-6-(4-methoxyoxane-4-carbonyl)-5H,6H,7H-pyrrolo[3,4-d]pyrimidin-4-amine] | > 6.40 | > 6.00 |
| C[C@@H](Nc1nc(Cl)nc2c1CN(C(=O)N1CCNCC1C(F)(F)F)C2)c1cc(N)cc(C(F)(F)F)c1 (stereo partly shown) [Example 358] | > 6.40 | > 6.00 |

From patent US20230096028A1, “BICYCLIC HETEROCYCLYL COMPOUNDS AND USES THEREOF” (Revolution Medicines, Inc., priority 2019, published 2023)
